Test results taken from PubChem BioAssay AID2060907 (Molecular Pharmacology Branch, DTP, NCI, 2025).

Tested on: 388556-164-R-J1-PDC complex spheroid viability
Experiment: Anticancer human tumor 388556-164-R-J1-PDC patient-derived colon adenocarcinoma cell line growth inhibition [RAS]
Conditions: for IC50: curve of first compound; for viability, T/C: stronger effect = lower value
Method in brief: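 Multi-cell-type spheroids: tumor cells plus HUVEC endothelial cells and mesenchymal stem cells. RAS-pathway inhibitors were combined with targeted agents, each dosed in half-log steps down from clinical Cmax, or from 10 microM when Cmax was unknown.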
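Note: spheroids exposed to compound for 7 days before readout.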
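Throughout, for viability, T/C: 100% = DMSO vehicle control luminescence.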

`CCc1c2c(nc3ccc(O)cc13)-c1cc3c(c(=O)n1C2)COC(=O)[C@]3(O)CC` + C=CC(=O)N1CCN(c2nc(OCC3CCCN3C)nc3c(F)c(-c4nc(N)cc(C)c4C(F)(F)F)c(Cl)cc23)C(C)C1 was tested, and the IC50 (second compound 0.00316 µM) was 98.4 nM, the IC50 (second compound 0.01 µM) was 119 nM and the IC50 (second compound 0.0316 µM) was 86.1 nM. The IC50 (second compound 0.1 µM) was 74.8 nM, the IC50 (second compound 0.316 µM) was 97.2 nM and the IC50 (second compound 1 µM) was 96.3 nM. It also gave a viability, T/C (second compound 0.00316 µM, first compound 0.000949 µM) of 103%, a viability, T/C (second compound 0.00316 µM, first compound 0.003 µM) of 97.2% and a viability, T/C (second compound 0.00316 µM, first compound 0.00949 µM) of 78%. For the same compound, the viability, T/C (second compound 0.00316 µM, first compound 0.03 µM) was 67.3%, the viability, T/C (second compound 0.00316 µM, first compound 0.0949 µM) was 53.7% and the viability, T/C (second compound 0.00316 µM, first compound 0.3 µM) was 29.9%. The viability, T/C (second compound 0.01 µM, first compound 0.000949 µM) was 110%, the viability, T/C (second compound 0.01 µM, first compound 0.003 µM) was 95.5% and the viability, T/C (second compound 0.01 µM, first compound 0.00949 µM) was 81.4%. For the same compound, the viability, T/C (second compound 0.01 µM, first compound 0.03 µM) was 72%, the viability, T/C (second compound 0.01 µM, first compound 0.0949 µM) was 58.3% and the viability, T/C (second compound 0.01 µM, first compound 0.3 µM) was 31.9%. It also gave a viability, T/C (second compound 0.0316 µM, first compound 0.000949 µM) of 99.9%, a viability, T/C (second compound 0.0316 µM, first compound 0.003 µM) of 98.8% and a viability, T/C (second compound 0.0316 µM, first compound 0.00949 µM) of 80.2%. For the same compound, the viability, T/C (second compound 0.0316 µM, first compound 0.03 µM) was 65.2%, the viability, T/C (second compound 0.0316 µM, first compound 0.0949 µM) was 51.4% and the viability, T/C (second compound 0.0316 µM, first compound 0.3 µM) was 23.3%. The viability, T/C (second compound 0.1 µM, first compound 0.000949 µM) was 102%, the viability, T/C (second compound 0.1 µM, first compound 0.003 µM) was 93.3% and the viability, T/C (second compound 0.1 µM, first compound 0.00949 µM) was 74.4%. The viability, T/C (second compound 0.1 µM, first compound 0.03 µM) was 61.3%, the viability, T/C (second compound 0.1 µM, first compound 0.0949 µM) was 51% and the viability, T/C (second compound 0.1 µM, first compound 0.3 µM) was 27.2%. For the same compound, the viability, T/C (second compound 0.316 µM, first compound 0.000949 µM) was 106%, the viability, T/C (second compound 0.316 µM, first compound 0.003 µM) was 92.7% and the viability, T/C (second compound 0.316 µM, first compound 0.00949 µM) was 82.4%. The viability, T/C (second compound 0.316 µM, first compound 0.03 µM) was 67%, the viability, T/C (second compound 0.316 µM, first compound 0.0949 µM) was 50.5% and the viability, T/C (second compound 0.316 µM, first compound 0.3 µM) was 32.7%. It also gave a viability, T/C (second compound 1 µM, first compound 0.000949 µM) of 107%, a viability, T/C (second compound 1 µM, first compound 0.003 µM) of 103% and a viability, T/C (second compound 1 µM, first compound 0.00949 µM) of 75.8%. For the same compound, the viability, T/C (second compound 1 µM, first compound 0.03 µM) was 68.1%, the viability, T/C (second compound 1 µM, first compound 0.0949 µM) was 55.2% and the viability, T/C (second compound 1 µM, first compound 0.3 µM) was 28.8%.
